Results on 1 compound are retold here after publication PMC8310591, “Production of trans-cinnamic acid by whole-cell bioconversion from L-phenylalanine in engineered Corynebacterium glutamicum” (Microbial Cell Factories, 2021).

The target of the experiment is T1, SmPAL (Streptomyces maritimus, UniProt Q9KHJ9).
T1 construct: gene encP; native gene amplified from pHB-104, expressed from pHCMS-SmPAL (PH36 promoter) in Corynebacterium glutamicum ATCC 13032; 56 kDa; no tag mentioned; whole cells, not purified
T1 sequence (Q9KHJ9 1-523): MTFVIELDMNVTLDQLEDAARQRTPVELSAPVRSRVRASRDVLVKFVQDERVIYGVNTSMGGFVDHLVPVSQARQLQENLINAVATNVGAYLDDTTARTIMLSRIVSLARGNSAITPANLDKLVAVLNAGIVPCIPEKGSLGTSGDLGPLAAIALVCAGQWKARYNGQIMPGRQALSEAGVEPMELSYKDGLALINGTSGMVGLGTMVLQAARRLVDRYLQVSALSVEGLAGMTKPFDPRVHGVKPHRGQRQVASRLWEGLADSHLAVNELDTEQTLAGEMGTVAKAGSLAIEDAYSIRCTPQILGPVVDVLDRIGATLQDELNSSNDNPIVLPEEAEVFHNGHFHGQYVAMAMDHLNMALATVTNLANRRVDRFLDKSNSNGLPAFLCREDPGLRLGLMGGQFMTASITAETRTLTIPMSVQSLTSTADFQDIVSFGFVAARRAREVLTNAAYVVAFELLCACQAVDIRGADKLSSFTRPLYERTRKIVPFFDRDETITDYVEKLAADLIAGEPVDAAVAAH
Put plainly: whole-cell bioconversion, HPLC of L-Phe and t-CA. In kind it is cell-based. The conditions noted are these: C. glutamicum harboring pHCMS-SmPAL; 18.2 mM L-Phe; 100 mM Tris-HCl pH 7.5; 30 °C; product trans-cinnamic acid.

Molecules are shown by their SMILES.

With `N[C@@H](Cc1ccccc1)C(=O)O` [L-phenylalanine], the “whole-cell bioconversion, HPLC of L-Phe and t-CA” value was “the bioconversion of L-Phe to t-CA was immediately observed”.
